Measured values taken from paper PMC12501004.

Assay: intramolecular Trp triplet quenching by Cys (photoinduced electron transfer, contact formation) in full-length measles virus NTAIL single C-W variants; nanosecond transient absorption (289 nm pump, 458 nm probe); tau_CW from 1/tau_CW = 1/tau_obs - 1/tau_0
Settings: aqueous buffer: 15 mM Tris, 150 mM NaCl, 1 mM TCEP, pH 7.6, N2O-saturated; 0.1 mM; 20.0 °C; scale: us

Substance	ring closure, rate
H-GSTTEDKICRAVGPRQAQVSFLHGDQSENELPRLGGKEDRRVKQSRGEARESWRETGPSRASDARAAHLPTGTPLDIDTASESSQDPQDSRRSADALLRLQAMAGISEEQGSDTDTPIVYNDRNLLD-OH	6.63
H-GSTTEDKISRAVGPRQAQVSFLHGDQCENELPRLGGKEDRRVKQSRGEARESWRETGPSRASDARAAHLPTGTPLDIDTASESSQDPQDSRRSADALLRLQAMAGISEEQGSDTDTPIVYNDRNLLD-OH	3.1
H-GSTTEDKISRAVGPRQAQVSFLHGDQSENELPRLGGKEDRRVKQSRGEARESWRETGPSRASDARAAHLPTGTPLDIDTASESCQDPQDSRRSADALLRLQAMAGISEEQGSDTDTPIVYNDRNLLD-OH	3.21
H-GSTTEDKISRAVGPRQAQVSFLHGDQSENELPRLGGKEDRRVKQSRGEARESYRETGPSRASDARAAHLPTGTPLDIDTASESCQDPQDSRRSADALLRLQAMAGISEEQGSDTDTPIVWNDRNLLD-OH	7.6
H-GSTTEDKISRAVGPRQAQVSFLHGDQSENELPRLGGKEDRRVKQSRGEARESYRETGPSRASDARAAHLPTGTPLDIDTASESSQDPQDCRRSADALLRLQAMAGISEEQGSDTDTPIVWNDRNLLD-OH	2.76
